Measured values from the supplement of paper PMC11451515.

Key:
Assay in all cases: AUC of viability dose-response curve (% viability x log10 dose units); higher = less sensitive
Details in all cases: 48 h
NOMO1 = tested on: NOMO1
How it was run: (§1)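 Leukemia cells adapted to each medium were seeded at 500 or 1000 cells/well in 1536-well plates and dosed with library compounds in DMSO at 11 threefold doses from 47 μM to 0.79 nM for 48 h at 37°C. CellTiter-Glo One luminescence was normalised per plate to DMSO and cell-free wells, then fitted with a four-parameter log-logistic model over log10 doses. Area under the curve was taken from this fit by the trapezoidal rule, with curves above full viability scaled and curves failing quality control removed.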

P12-Ichikawa = tested on: P12-Ichikawa
How it was run: as §1

SEM cells = tested on: SEM cells
How it was run: as §1

[1] = RPMI 5 mM glucose + 10% dialyzed FBS

| SMILES | AUC of viability dose-response curve (NOMO1; HPLM + 10% dialyzed FBS) | AUC of viability dose-response curve (NOMO1; RPMI 5 mM glucose + 10% FBS) | AUC of viability dose-response curve (NOMO1; [1]) | AUC of viability dose-response curve (P12-Ichikawa; HPLM + 10% dialyzed FBS) | AUC of viability dose-response curve (P12-Ichikawa; RPMI 5 mM glucose + 10% FBS) | AUC of viability dose-response curve (P12-Ichikawa; [1]) | AUC of viability dose-response curve (SEM cells; HPLM + 10% dialyzed FBS) | AUC of viability dose-response curve (SEM cells; RPMI 5 mM glucose + 10% FBS) | AUC of viability dose-response curve (SEM cells; [1]) |
| --- | --- | --- | --- | --- | --- | --- | --- | --- | --- |
| CN(C)[C@H]\1[C@@H]2C[C@H]3C(=C(O)\[C@]2(O)C(=O)\C(=C1O)C(N)=O)/C(=O)C4=C(O)C=CC=C4[C@@]3(C)O | 468 | 443 | 454 | 470 | 467 | 461 | 426 | 441 | 452 |
| CC(C)C[C@@H](C=O)NC(=O)[C@H](CC(C)C)NC(=O)[C@H](CC(C)C)NC(=O)OCc1ccccc1 | 337 | 312 | 351 | 364 | 324 | 361 | 305 | 279 | 315 |
| C=C[C@H]1CN2CC[C@H]1C[C@H]2[C@H](O)c1ccnc2ccc(OC)cc12 | 464 | 443 | 469 | 458 | 466 | 446 | 472 | 442 | 431 |
| Cn1c(CNc2ccc(C(=N)N)cc2)nc2cc(C(=O)N(CCC(=O)O)c3ccccn3)ccc21 | 441 | 443 | 440 | 448 | 472 | 465 | 424 | 469 | 451 |
| Cc1cnc(-c2cc(N3CCN(C(=O)CC[S+](C)(=O)[O-])CC3)ncc2Cl)c(C)c1 | 404 | 470 | 455 | 466 | 475 | 469 | 426 | 453 | 427 |
| COc1ncc(-c2ccc3nccc(-c4ccnnc4)c3c2)cc1N[S+](=O)([O-])c1ccc(F)cc1F | 303 | 279 | 297 | 354 | 266 | 310 |  |  |  |
| O=C(Nc1cc2cc[nH]c2cn1)c1ccccc1 | 366 | 385 | 401 | 360 | 414 | 386 | 359 | 335 | 364 |
| COc1ccc(-c2nc(N3CCOCC3)c3sc(CN(C)c4ncc(C(=O)NO)cn4)cc3n2)cn1 | 156 | 169 | 166 | 163 | 162 | 172 | 136 | 113 | 144 |
| CN1CCCN=C1/C=C/c1cccs1.O=C(O)c1cc2ccccc2c(Cc2c(O)c(C(=O)O)cc3ccccc23)c1O | 417 | 446 | 436 | 413 | 462 | 462 | 467 | 442 | 453 |
| C[N]1C=C(C2=C1C=CC=C2)\C3=C(\C(=O)NC3=O)C4=C5CC(CN)CC[N]5C6=C4C=CC=C6 (stereo unspecified) | 452 | 443 | 460 | 456 | 440 | 443 | 395 | 399 | 420 |
| S=P(N1CC1)(N1CC1)N1CC1 | 468 | 458 | 468 | 452 | 470 | 448 | 455 | 446 | 441 |
| CCC[C@H]1C[C@H](C(=O)N[C@@H]([C@@H]2O[C@@H](SC)[C@@H](O)[C@@H](O)[C@H]2O)[C@H](C)Cl)N(C)C1 | 459 | 430 | 439 | 465 | 455 | 467 | 447 | 450 | 447 |
| CN(C)C1=CC=C(C=C1)C(C2=CC=C(C=C2)N(C)C)=C/3\C=C/C(/C=C3)=[N+](C)C | 225 | 232 | 234 | 253 | 233 | 240 | 226 | 218 | 211 |
| OC1=CC2=C(C(=C1)O)C(=O)\C=C(/O2)C3=CC=CC=C3 | 450 | 453 | 456 | 441 | 443 | 446 | 429 | 410 | 423 |
| CCC(C)(C)c1ccc(CC(C)CN2C[C@@H](C)O[C@@H](C)C2)cc1 (stereo partly specified) | 422 | 368 | 397 | 424 | 417 | 380 | 356 | 369 | 398 |
| C\C1=C(\C=C(\C#N)C(=O)N1)C2=CC=NC=C2 | 474 | 464 | 468 |  |  |  | 418 | 471 | 460 |
| O=C(Nc1ccccc1-c1cn2c(CN3CCNCC3)csc2n1)c1cnc2ccccc2n1 | 381 | 350 | 391 | 388 | 369 | 361 | 364 | 366 | 310 |
| CC(C)C(=O)Oc1ccc(CO)cc1[C@H](CCN(C(C)C)C(C)C)c1ccccc1 |  |  |  | 405 | 398 | 381 | 376 | 402 | 433 |
| Nc1nc(N)c2nc(CNc3ccc(C(=O)NC(CCC(=O)O)C(=O)O)cc3)cnc2n1 (stereo unspecified) | 344 | 414 | 286 | 283 | 313 | 272 | 290 | 394 | 247 |
| C=CC(=O)N1CCC[C@@H](n2nc(-c3ccc(Oc4ccccc4)cc3)c3c(N)ncnc32)C1 | 462 | 446 | 467 | 414 | 458 | 452 | 456 | 443 | 424 |
| CC[C@H](C)[N]1C=C(C)C2=C1C=C(C=C2C(=O)NC\C3=C(C)\C=C(\C)NC3=O)C4=CC=C(N=C4)N5CCNCC5 | 469 | 475 | 467 | 476 | 468 | 474 | 474 | 472 | 463 |
| O=C(Nc1ccc(F)c(C(F)(F)F)c1)Nc1nnc(-c2ccncc2)s1 | 456 | 444 | 466 | 469 | 451 | 465 | 467 | 464 | 467 |
| NC(=O)c1ccc(I)c([N+](=O)[O-])c1 | 468 | 475 | 464 | 461 | 457 | 468 | 473 | 470 | 467 |
| CCN1\C=C(\C(O)=O)C(=O)C2=CC=C(C)N=C12 |  |  |  | 466 | 426 | 427 | 397 | 425 | 410 |

| SMILES | AUC of viability dose-response curve (NOMO1; HPLM + 10% dialyzed FBS) | AUC of viability dose-response curve (NOMO1; RPMI 5 mM glucose + 10% FBS) | AUC of viability dose-response curve (NOMO1; [1]) | AUC of viability dose-response curve (P12-Ichikawa; HPLM + 10% dialyzed FBS) | AUC of viability dose-response curve (P12-Ichikawa; RPMI 5 mM glucose + 10% FBS) | AUC of viability dose-response curve (P12-Ichikawa; [1]) | AUC of viability dose-response curve (SEM cells; HPLM + 10% dialyzed FBS) | AUC of viability dose-response curve (SEM cells; RPMI 5 mM glucose + 10% FBS) | AUC of viability dose-response curve (SEM cells; [1]) |
| --- | --- | --- | --- | --- | --- | --- | --- | --- | --- |
| C/C=C(/C)C(=O)O[C@H]1C(C)=C[C@]23C(=O)[C@@H](C=C(CO)[C@@H](O)[C@]12O)[C@H]1[C@@H](C[C@H]3C)C1(C)C | 324 | 336 | 314 | 397 | 336 | 361 | 392 | 349 | 431 |
| N[C@H](CSC(c1ccccc1)(c1ccccc1)c1ccccc1)C(=O)O | 470 | 466 | 465 | 472 | 437 | 470 |  |  |  |
| CC(C)CC(=O)N[C@H](C(=O)N[C@H](C(=O)N[C@@H](CC(C)C)[C@@H](O)CC(=O)N[C@@H](C)C(=O)N[C@@H](CC(C)C)[C@@H](O)CC(=O)O)C(C)C)C(C)C | 450 | 445 | 467 | 471 | 476 | 477 | 443 | 435 | 437 |
| CCOC(=O)\C1=C(/C)N\C2=C(C1C3=CC=C(C=C3)C4=CC=CC=C4)\C(=O)CC(C)(C)C2 (stereo unspecified) | 438 | 465 | 447 | 457 | 457 | 444 | 461 | 451 | 450 |
| C[C@]12CCC(=O)C=C1CC[C@@H]1[C@@H]2CC[C@@]2(C)[C@H]1CC[C@]2(C)O | 440 | 430 | 453 | 465 | 458 | 452 |  |  |  |
| COC1=C2OC(=O)\C=C/C2=CC3=C1OC=C3 | 465 | 451 | 466 | 447 | 449 | 426 | 459 | 458 | 456 |
| O=C(O[C@H]1C[C@H]2CC[C@@H](C1)[N+]21CCCC1)C(O)(c1ccccc1)c1ccccc1.[Cl-] | 472 | 462 | 467 | 461 | 464 | 470 | 460 | 437 | 449 |
| COc1cc2nccc(Oc3ccc(NC(=O)NC4CC4)c(Cl)c3)c2cc1C(N)=O | 439 | 448 | 445 | 429 | 429 | 430 | 378 | 378 | 359 |
| C=C(C)[C@H]1Cc2c(ccc3c2O[C@@H]2COc4cc(OC)c(OC)cc4[C@@H]2C3=O)O1 | 389 | 399 | 413 | 376 | 335 | 366 | 370 | 337 | 379 |
| CC(C)C(=O)Nc1ccc([N+](=O)[O-])c(C(F)(F)F)c1 | 332 | 309 | 320 | 350 | 360 | 378 | 453 | 472 | 461 |
| OC[C@H]1OCC(O1)[N@@]2C=CC(N)=NC2=O (stereo partly specified) | 465 | 463 | 475 | 458 | 458 | 446 |  |  |  |
| O=c1[nH]c2ccccc2n1C1CCN(Cc2ccc(-c3nc4cc5nc[nH]c5cc4nc3-c3ccccc3)cc2)CC1 | 439 | 463 | 474 | 457 | 460 | 443 |  |  |  |
| CC(N)C12CC3CC(CC(C3)C1)C2 (stereo unspecified) | 453 | 437 | 443 | 449 | 456 | 455 | 468 | 447 | 477 |
| C[C@]12CC[C@@H]3c4ccc(O)cc4C[C@@H](CCCCCCCCC[S+]([O-])CCCC(F)(F)C(F)(F)F)[C@H]3[C@@H]1CC[C@@H]2O (stereo partly specified) | 428 | 470 | 429 | 464 | 462 | 455 | 475 | 411 | 459 |
| FC(F)c1nc2ccccc2n1-c1nc(N2CCOCC2)nc(N2CCOCC2)n1 | 260 | 329 | 333 | 413 | 367 | 394 | 325 | 351 | 326 |
| Cn1cnc2c1c(=O)[nH]c(=O)n2C | 440 | 443 | 449 | 452 | 452 | 445 | 447 | 415 | 443 |
| Cc1c(C(=O)NN2CCCCC2)nn(-c2ccc(Cl)cc2Cl)c1-c1ccc(Cl)cc1 | 325 | 303 | 337 |  |  |  | 473 | 455 | 469 |
| C[S+](=O)([O-])N1CCc2c(-c3cnc(N)nc3)nc(N3CCOCC3)nc21 | 418 | 442 | 404 | 457 | 431 | 440 |  |  |  |
| CN(NC(=O)CC(=O)NN(C)C(=S)c1ccccc1)C(=S)c1ccccc1 | 207 | 197 | 178 | 216 | 204 | 217 |  |  |  |
| CNC[C@H](O)c1ccc(O)c(O)c1 | 425 | 402 | 408 | 446 | 448 | 412 |  |  |  |
| CNC(=O)c1ccc(N2C(=S)N(c3ccc(C#N)c(C(F)(F)F)c3)C(=O)C23CCC3)cc1F |  |  |  |  |  |  | 425 | 408 | 411 |
| O=C1c2c(O)ccc(O)c2C(=O)c2c(NCCNCCO)ccc(NCCNCCO)c21 |  |  |  | 286 | 280 | 296 | 251 | 261 | 261 |
| CC(C)C[C@H](NC(=O)[C@H](CCc1ccccc1)NC(=O)CN1CCOCC1)C(=O)N[C@@H](Cc1ccccc1)C(=O)N[C@@H](CC(C)C)C(=O)[C@@]1(C)CO1 | 177 | 152 | 169 | 162 | 139 | 140 |  |  |  |
| Cc1ccc([S+](=O)([O-])N[C@@H](Cc2ccccc2)C(=O)CCl)cc1 | 463 | 434 | 450 |  |  |  | 427 | 429 | 420 |
